Measured values: patent US11286268B1, “EIF4E-inhibiting compounds and methods” (EFFECTOR THERAPEUTICS, INC., priority 2019, dated 2022)
Where two headings read alike, the source gives them in different places.

Molecular target: recombinant eIF4E (Homo sapiens (Human), UniProt P06730)
Experiment: Fluorescence polarization competition assay for eIF4E binding potency
How it was run: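 Competitive displacement format: compounds compete with a fluorescent m7GDP tracer (20 nM) for 75 nM recombinant eIF4E. Incubation is 30 min at room temperature, protected from light, with 1% DMSO. Polarization read gives IC50 over eight 3-fold concentrations.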

[1] = fluorescence polarization competition, 75 nM recombinant eIF4E, 20 nM EDA-m7GDP-ATTO-550, IC50 class, read-out: elF4E FP
[2] = inhibition of eIF4E/EDA-m7GDP-ATTO-550 binding by 50%, Table 4B calculated values, read-out: IC50
[3] = inhibition of eIF4E/EDA-m7GDP-ATTO-550 binding, calculated IC50 values, Table 4B, read-out: IC50

Sequence of recombinant eIF4E (P06730 whole entry): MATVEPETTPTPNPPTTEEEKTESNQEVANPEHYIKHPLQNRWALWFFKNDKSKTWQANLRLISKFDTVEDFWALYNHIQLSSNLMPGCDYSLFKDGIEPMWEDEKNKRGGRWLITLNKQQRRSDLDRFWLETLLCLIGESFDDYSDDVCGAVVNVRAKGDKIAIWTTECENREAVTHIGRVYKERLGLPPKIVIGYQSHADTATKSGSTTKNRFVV

SMILES	IC50 [1] [nM]	IC50 [2] [nM]	IC50 [3] [nM]
Cc1cc(-c2cc(Cl)ccc2OCCn2c(C)nc3cc(C(F)(F)F)c(N4CCNCC4)c(C#N)c3c2=O)c2sc(C)c(C(=O)O)c2n1 [compound 879]	< 50	7.31	–
Cc1nc2cnc(N3CCN(CCF)C(C)(C)C3)c(C#N)c2c(=O)n1CCOc1ccc(Cl)cc1-c1ccnc2c(C(=O)O)csc12 [compound 1333]	–	–	26.2
Cc1nc2cc(Cl)c(S(=O)(=O)N(C)C)c(C#N)c2c(=O)n1CCOc1ccc(Cl)cc1-c1ccnc2c(C(=O)O)csc12 [compound 247]	50 to 1000	61.1	–
Cc1cc(-c2cc(Cl)ccc2OCCn2c(C)nc3c(C)nc(C4CC4)c(C#N)c3c2=O)c2scc(C(=O)O)c2n1 [compound 742]	< 50	32.5	–
Cc1nc2cnc(N3CCC(O)C3)c(C#N)c2c(=O)n1CCOc1ccc(Cl)cc1-c1ccnc2ccsc12 (stereo not drawn) [compound 1258]	–	–	61.5
Cc1cc(-c2cc(Cl)ccc2OCCn2c(C)nc3cnc(N4CC(OC(C)(C)C)C4)c(C#N)c3c2=O)c2scc(C(=O)O)c2n1 [compound 1045]	< 50	38.2	–
Cc1nc2cc(C(F)(F)F)c(CCN(C)CC(F)F)c(C#N)c2c(=O)n1CCOc1ccc(Cl)cc1-c1ccnc2c(C(=O)O)csc12 [compound 1288]	–	–	36.7
CCc1cc(-c2cc(Cl)ccc2OCCn2c(C)nc3cnc(N4CCN(C)C5CC54)c(C#N)c3c2=O)c2scc(C(=O)O)c2n1 (stereo not drawn) [compound 1219]	< 50	–	3.99
Cc1cc(-c2cc(Cl)ccc2OCCn2c(C)nc3cc(C(F)(F)F)c(-c4ncccc4C)c(C#N)c3c2=O)c2scc(C(=O)O)c2n1 [compound 1380]	–	–	26.6
Cc1nc2cc(Cl)c(Cl)c(Cl)c2c(=O)n1CCOc1ccc(Cl)cc1-c1ccnc2c(C(=O)O)csc12 [compound 208]	50 to 1000	103	–
Cc1nc2cc(C(F)(F)F)c(N3CCN(C)CC3)c(C#N)c2c(=O)n1CCSc1ccc(Cl)cc1-c1ccnc2c(C(=O)O)csc12 [compound 1269]	–	–	66.6
Cc1sc2c(-c3cc(Cl)ccc3OCCn3c(C)nc4cc(C(F)(F)F)cc(C#N)c4c3=O)ccnc2c1C(=O)O [compound 205]	50 to 1000	101	–
Cc1cc(-c2cc(Cl)ccc2OCCn2c(C)nc3cnc(NN(C)C)c(C#N)c3c2=O)c2scc(C(=O)O)c2n1 [compound 979]	< 50	9.48	–
Cc1nc2ccc(S(=O)(=O)c3ccccn3)c(C#N)c2c(=O)n1CCOc1ccc(Cl)cc1-c1ccnc2c(C(=O)O)csc12 [compound 297]	< 50	36.3	–
Cc1sc2c(-c3cc(Cl)ccc3OCCn3cnc4cc(C(F)(F)F)c(CN(C)C)c(C#N)c4c3=O)ccnc2c1C(=O)O [compound 641]	< 50	33.3	–
Cc1cc(-c2cc(Cl)ccc2OCCn2c(C)nc3c(C)nc(C(F)(F)F)c(C#N)c3c2=O)c2scc(C(=O)O)c2n1 [compound 730]	50 to 1000	51	–
Cc1nc2c(N(C)C3CCN(C)C(C(F)F)C3)ncc(C#N)c2c(=O)n1CCOc1ccc(Cl)cc1-c1ccnc2c(C(=O)O)csc12 (stereo not drawn) [compound 864]	< 50	47.9	–
N#Cc1cc2c(=O)n(CCOc3ccc(Cl)cc3-c3cc(C(=O)O)c4ncccc4c3)cnc2cn1 [compound 100]	> 1000	3480	–
O=C(O)c1cccc(-c2cc(Cl)ccc2OCCn2c(C(F)(F)F)nc3cnc(Cl)cc3c2=O)c1 [compound 2007]	–	–	> 300000
Cc1nc2cc(C(F)(F)F)c(N3CCN(C4CC4)CC3)c(C#N)c2c(=O)n1CCOc1ccc(Cl)cc1-c1ccnc2c(C(=O)NS(C)(=O)=O)csc12 [compound 1179]	< 50	14.7	–
Cc1nc2cc(C(F)(F)F)cc(S)c2c(=O)n1CCOc1ccc(Cl)cc1-c1ccnc2c(C(=O)O)csc12 [compound 221]	50 to 1000	113	–
CCc1cc(-c2cc(Cl)ccc2OCCn2c(C)nc3cc(C(F)(F)F)c(CC4CCN(C)CC4)c(C#N)c3c2=O)c2scc(C(=O)O)c2n1 [compound 1275]	–	–	58.7
Cc1nc2cnc(N(C)C3CCN([C@H]4C[C@H](F)C4)CC3)c(C#N)c2c(=O)n1CC#Cc1ccc(Cl)cc1-c1ccnc2c(C(=O)NS(=O)(=O)c3ccncc3)csc12 [compound 1792]	–	–	9.24
Cc1c(C(=O)O)ccnc1-c1cc(Cl)ccc1OCCn1cnc2cnc(C#N)cc2c1=O [compound 115]	> 1000	> 3000	–
O=C(O)c1cccc(-c2cc(Cl)ccc2OCCc2cccc3nc[nH]c(=O)c23)c1 [compound 170]	50 to 1000	845	–
Cc1nc2cnc(/C=C/C3(N(C)C)CC3)c(C#N)c2c(=O)n1CCOc1ccc(Cl)cc1-c1ccnc2c(C(=O)O)csc12 [compound 1123]	< 50	21.5	–
Cc1cc(-c2cc(Cl)ccc2OCCn2c(C)nc3cnc(N(C)N(C)C)c(C#N)c3c2=O)c2scc(C(=O)O)c2n1 [compound 978]	< 50	20.7	–

SMILES	IC50 [1] [nM]	IC50 [2] [nM]	IC50 [3] [nM]
Cc1nc2cc(C(F)(F)F)c(N3CCN(C)CC3)c(C#N)c2c(=O)n1CCOc1ccc(Cl)cc1-c1ccnc2c(P(=O)(O)O)csc12 [compound 1613]	–	–	16.1
Cc1nc2cc(C(F)(F)F)cc(C#N)c2c(=O)n1CCOc1ccc(Cl)cc1-c1cc(CN(C)C)nc2c(C(=O)O)csc12 [compound 636]	< 50	33.2	–
Cc1cc(-c2cc(Cl)ccc2OCCn2c(C)nc3cnc(N4CCN(C)CC4)c(C#N)c3c2=O)c2sc(C)c(C(=O)O)c2n1 [compound 1418]	–	–	9.1
Cc1nc2cnc(N3CCN(CC4(F)CC4)CC3)c(C#N)c2c(=O)n1CCOc1ccc(Cl)cc1-c1ccnc2c(C(=O)O)csc12 [compound 1470]	–	–	30.8
N#Cc1c(C(F)(F)F)ccc2ncn(CCOc3ccc(Cl)cc3-c3cccc(C(=O)O)c3)c(=O)c12 [compound 133]	50 to 1000	66.5	–
Cc1cc(-c2cc(Cl)c(F)cc2OCCn2c(C)nc3cc(C(F)(F)F)cc(C#N)c3c2=O)c2scc(C(=O)O)c2n1 [compound 571]	50 to 1000	54.8	–
Cc1cc(-c2cc(Cl)ccc2OCCn2c(C)nc3cc(Cl)c(Nc4cccnc4)c(C#N)c3c2=O)c2scc(C(=O)O)c2n1 [compound 700]	< 50	22.4	–
Cc1nc2cc(C(F)(F)F)c(N3CCN(CCF)CC3)c(C#N)c2c(=O)n1CCOc1ccc(Cl)cc1-c1ccnc2c(C(=O)O)csc12 [compound 655]	< 50	13.5	–
Cc1cc(-c2cc(Cl)ccc2OCCn2c(C)nc3cnc(N(C)c4ccccc4)c(C#N)c3c2=O)c2scc(C(=O)O)c2n1 [compound 986]	< 50	16.9	–
Cc1nc2cc(C(F)(F)F)cc(C#N)c2c(=O)n1CCOc1ccc(Cl)cc1-c1csc2c(C(=O)O)ccnc12 [compound 299]	< 50	22.3	–
Cc1cc(-c2cc(Cl)ccc2OCCn2c(C)nc3cc(C(F)(F)F)c(OCC(F)F)c(C#N)c3c2=O)c2scc(C(=O)O)c2n1 [compound 1197]	< 50	–	5.93
Cc1nc2cnc(OC3CCN(CC(F)(F)F)CC3)c(C#N)c2c(=O)n1CCOc1ccc(Cl)cc1-c1ccnc2c(C(=O)O)csc12 [compound 820]	< 50	13.6	–
Cc1cc(-c2cc(Cl)ccc2OCCn2c(=O)c3c(C#N)cc(C(F)(F)F)cc3n(C)c2=O)c2scc(C(=O)O)c2n1 [compound 1975]	–	–	109
Cn1cc2c(C(=O)O)cc(-c3cc(Cl)ccc3OCCn3cnc4cnc(C#N)cc4c3=O)cc2n1 [compound 102]	> 1000	4820	–
Cc1nc2cc(C(F)(F)F)c(Cl)c(C#N)c2c(=O)n1CC#Cc1ccc(Cl)cc1-c1ccnc2c(C(=O)O)csc12 [compound 554]	< 50	31.8	–
COC(=O)c1csc2c(-c3cc(Cl)ccc3OCCn3c(C)nc4cnc(N(C)C5CCN(CC(F)(F)F)CC5)c(C#N)c4c3=O)ccnc12 [compound 1620]	–	–	17.9
N#Cc1cccc2nc(C(F)F)n(CCOc3ccc(Cl)cc3-c3nccc4c(C(=O)O)csc34)c(=O)c12 [compound 189]	> 1000	1570	–
Cc1nc2cnc(N3CCC4(CC3)CN(CC(C)(F)F)C4)c(C#N)c2c(=O)n1CC#Cc1ccc(Cl)cc1-c1ccnc2c(C(=O)NS(=O)(=O)C3COC3)csc12 [compound 1411]	–	–	17.5
Cc1cc(-c2cc(Cl)ccc2OCCn2c(C)nc3cc(C(F)(F)F)c(C4CCCN4C)c(C#N)c3c2=O)c2scc(C(=O)O)c2n1 (stereo not drawn) [compound 708]	50 to 1000	87.8	–
Cc1nc2cnc(C3CC3)c(C#N)c2c(=O)n1CCOc1ccc(Cl)cc1-n1cnc2c(C(=O)O)cccc21 [compound 756]	< 50	43.2	–
CNC(=O)Cc1cc2c(=O)n(CCOc3ccc(Cl)cc3-c3cccc(C(=O)O)c3)cnc2cn1 [compound 137]	50 to 1000	904	–
CCN(c1ncc2nc(C)n(CC#Cc3ccc(Cl)cc3-c3ccnc4c(C(=O)NS(C)(=O)=O)csc34)c(=O)c2c1C#N)C1CCN(C2CC(F)(F)C2)CC1 [compound 1601]	–	–	8.05
Cc1cc(-c2cc(Cl)ccc2OCCc2nc3cc(N4CCN(C)CC4)c(C(F)(F)F)cc3nc2C)c2scc(C(=O)O)c2n1 [compound 1211]	50 to 1000	–	> 1000
Cc1cc(-c2cc(Cl)ccc2OCCn2c(C)nc3cc(C(F)(F)F)c(CCCN(C)C)c(C#N)c3c2=O)c2scc(C(=O)O)c2n1 [compound 709]	50 to 1000	56.7	–
Cc1nc2cnc(N(C)C3CCN([C@@H]4C[C@H]4C(F)(F)F)CC3)c(C#N)c2c(=O)n1CC#Cc1ccc(Cl)cc1-c1ccnc2c(C(=O)O)csc12 [compound 1727]	–	–	3.84
Cc1nc2cc(C(F)(F)F)cc(C#N)c2c(=O)n1CCOc1ccc(Cl)cc1-c1csc2c(C(=O)O)cccc12 [compound 301]	50 to 1000	57.6	–
